In series [1] the target is Programmed cell death 1 ligand 1 (Homo sapiens, UniProt Q9NZQ7). As to the kind of experiment: Inhibition of human PD-L1 incubated for 15 mins by ELISA method. (In general: In an ELISA, binding on a coated surface is turned into a signal by an enzyme label.)
Series [2] relates to Candida albicans. As to the kind of experiment: Antifungal activity against Candida albicans 901 infected in BALB/c mouse assessed as inhibition of fungal proliferation at 0.5 ug/g administered 6 times measured after 4 days in presence of Ketoconazole by Masson staining based analysis. It is filed as functional, organism-based. Conditions: dose 0.5 µg/g, time 4.0 day.
Series [3] deals with Candida albicans. Description: Antifungal activity against Candida albicans 901 infected in BALB/c mouse assessed as inhibition of fungal proliferation at 0.5 ug/g administered 6 times measured after 4 days in presence of Ketoconazole by GMS staining based analysis. The class given is functional, organism-based. Conditions: dose 0.5 µg/g, time 4.0 day.
Series [4] concerns Candida albicans. Description: Antifungal activity against Candida albicans 901 infected in BALB/c mouse assessed as decrease in collagen fiber content at 0.5 ug/g administered 6 times measured after 4 days in presence of Ketoconazole by Masson staining based analysis. It is filed as functional, organism-based. To be noted: dose 0.5 µg/g, time 4.0 day.
In series [5] the test system is Candida albicans. As to the kind of experiment: Antifungal activity against Candida albicans 901 infected in BALB/c mouse assessed as decrease in collagen fiber content at 0.5 ug/g administered 6 times measured after 4 days in presence of Ketoconazole by GMS staining based analysis. To be noted: dose 0.5 µg/g, time 4.0 day. It is filed as functional, organism-based.

In series [6] the test system is Candida albicans. Description: Antifungal activity against Candida albicans 901 infected in BALB/c mouse assessed as repair of tissue damage at 0.5 ug/g administered 6 times measured after 4 days in presence of Ketoconazole by Masson staining based analysis. It is filed as functional, organism-based. To be noted: dose 0.5 µg/g, time 4.0 day.
The test system of series [7] is Candida albicans. Description: Antifungal activity against Candida albicans 901 infected in BALB/c mouse assessed as repair of tissue damage at 0.5 ug/g administered 6 times measured after 4 days in presence of Ketoconazole by GMS staining based analysis. The class given is functional, organism-based. To be noted: dose 0.5 µg/g, time 4.0 day.
Series [8] can be described thus: Toxicity in BALB/c mouse infected with Candida albicans 901 assessed as pathological change in heart at 0.5 ug/g administered 6 times measured after 4 days in presence of Ketoconazole by H and E staining based analysis. It is filed as tissue-based. To be noted: in vivo, 96 h, dose 0.5 µg/g, time 4 day.
Series [9] in a line: Toxicity in BALB/c mouse infected with Candida albicans 901 assessed as pathological change in lung at 0.5 ug/g administered 6 times measured after 4 days in presence of Ketoconazole by H and E staining based analysis. It is filed as tissue-based. Conditions: in vivo, 96 h, dose 0.5 µg/g, time 4 day.
The nature of series [10]: Toxicity in BALB/c mouse infected with Candida albicans 901 assessed as pathological change in spleen at 0.5 ug/g administered 6 times measured after 4 days in presence of Ketoconazole by H and E staining based analysis. The class given is tissue-based. Conditions: in vivo, 96 h, dose 0.5 µg/g, time 4 day.
A short description of series [11]: Toxicity in BALB/c mouse infected with Candida albicans 901 assessed as pathological change in liver at 0.5 ug/g administered 6 times measured after 4 days in presence of Ketoconazole by H and E staining based analysis. It is filed as tissue-based. Conditions: in vivo, 96 h, dose 0.5 µg/g, time 4 day.
A short description of series [12]: Toxicity in BALB/c mouse infected with Candida albicans 901 assessed as pathological change in kidney at 0.5 ug/g administered 6 times measured after 4 days in presence of Ketoconazole by H and E staining based analysis. It is filed as tissue-based. To be noted: in vivo, 96 h, dose 0.5 µg/g, time 4 day.
For series [13], the system named is Candida albicans. As to the kind of experiment: Induction of immunity in BALB/c mouse infected with Candida albicans 901 assessed as decrease in PD-L1 level at 0.5 ug/g administered 6 times measured after 4 days in presence of Ketoconazole by Western blot analysis. The class given is functional, organism-based. Conditions: dose 0.5 µg/g, time 4.0 day. (A western blot detects proteins with antibodies after separation by electrophoresis.)

Series [14] relates to Candida albicans. Description: Induction of immunity in BALB/c mouse infected with Candida albicans 901 assessed as decrease in PD-L1 level at 0.5 ug/g administered 6 times measured after 4 days in presence of Ketoconazole by IHC analysis. Conditions: dose 0.5 µg/g, time 4.0 day. It is filed as functional, organism-based.

Active and inactive are the calls of the source. The calls are words filed in the database; no cut-off is given here.

Chain of Programmed cell death 1 ligand 1 (Q9NZQ7 whole entry): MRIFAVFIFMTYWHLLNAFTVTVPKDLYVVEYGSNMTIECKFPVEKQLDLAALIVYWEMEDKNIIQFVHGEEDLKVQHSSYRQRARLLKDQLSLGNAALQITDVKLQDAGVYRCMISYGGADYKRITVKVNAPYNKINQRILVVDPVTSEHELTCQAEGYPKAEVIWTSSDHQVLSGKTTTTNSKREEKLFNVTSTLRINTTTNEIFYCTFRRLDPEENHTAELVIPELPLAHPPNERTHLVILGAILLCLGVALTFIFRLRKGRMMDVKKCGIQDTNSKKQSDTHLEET

What is called IC50 is the concentration at which inhibition is half-maximal. High values mean weaker potency in that assay, low ones greater potency in that assay. In the case of `O=C(O)[C@@H](CO)NCc1cc(Cl)c(OCc2cccc(-c3ccccc3)c2Br)cc1OCc1cccnc1`, in series [1], inhibition was half-maximal at 0.022 µM (IC50). In addition, the inhibition entry in the series with Candida albicans [2] and with Candida albicans [3] was “Active” in each case. The result with Candida albicans [4], in the series on Candida albicans [5], in the series on Candida albicans [6], with Candida albicans [7], in the series with Candida albicans [13] and in the series with Candida albicans [14] was Active. The Activity entry in [8], in series [9], in series [10], in series [11] and in series [12] was “Non-Toxic” in each case.

(Values after ChEMBL document CHEMBL5365529, “Construction and Evaluation of Novel Dual-function Antifungal Inhibitors and Covalent Organic Framework Carriers Based on the Infection Microenvironment” (J Med Chem, 2023).)
